Series [1] can be described thus: Tissue concentrations of Trehalose (liver, brain) by LC-MS/MS. It counts as in vivo, mouse. How it is done:
LC-MS/MS bioanalytical methodologies were developed for the analysis of Trehalose, Miglustat and glucose in mouse whole blood and brain.
Tissue samples were homogenized in 8 volumes of sterile distilled water and 1 volume of TCA (20% in water) to generate a final concentration of 2% TCA, homogenates were centrifuged at 13000 rpm for 15 min at 4° C. and the supernatant transferred to a fresh plate. At the time of analysis, 1 volume of acetonitrile containing an internal standard was added in order to match the initial chromatography conditions, samples were centrifuged at 4350 rpm for 10 min at ambient temperature, and the resultant supernatant transferred for analysis on the LC-MS/MS.
The purpose of this example was to compare the blood PK of unlabelled high doses of Trehalose after IV and PO administration, with and without Miglustat PO dosing. For the IV comparison, Trehalose was dosed as an IV bolus dose 15 min after PO dosing of Miglustat. For the PO comparison Miglustat was dosed simultaneously with Trehalose. Fasted male C57BL6/N mice were dosed as detailed in Table III: […]

The next series concerns Cln3^Δex7-8 mice. Briefly: Neuronal cell death, cleaved caspase-3 immunohistology in brain sections. It counts as in vivo, mouse. How it is done:
Cln3^Δex7-8 mice were obtained from the Jackson Laboratory. Control (C57BL/6J) and Cln3^Δex7-8 mice were housed 3-4 per cage in a room with a 12-h light/12-h dark cycle. Food and water were provided ad libitum. All mice used in this study were analyzed at 8 and 12 months of age and were littermates produced by crossing heterozygous Cln3^Δex7-8 mice. Only males were used for this analysis. Investigators were blinded when analyzing the data, and no randomization was necessary.
For oral administration, Trehalose was dissolved in drinking water to a final concentration of 2% and changed twice a week. Trehalose-containing water was given to Cln3^Δex7-8 mice and WT mice by spontaneous oral administration starting at 21 days of age and continuing until the day the mice were sacrificed for neuropathology studies.
Miglustat was administered in mixture with the food pellet starting at 21 days of age and continuing until the day the mice were sacrificed for neuropathology studies. Miglustat food was prepared by TestDiet using the 5V5R rodent diet (LabDiet). Two concentrations were used: 1.2 g/Kg chow (indicated as “low concentration”) and 7.2 g/Kg chow (indicated as “high concentration”) and two separate groups of Cln3^Δex7-8 mice were fed with either diet. One additional group of Cln3^Δex7-8 l mice was fed with a combination of the low-concentration Miglustat food and 2% Trehalose water.
Twelve-month-old homozygous Cln3^Δex7-8 mice and age-matched controls (WT mice) were anaesthetized with isoflurane and transcardially perfused with PBS followed by 4% buffered paraformaldehyde in 0.1 M sodium phosphate buffer, pH 7.4. Brains were subsequently removed and postfixed overnight. Before sectioning, the brains were cryoprotected in a solution containing 30% sucrose in Tris-buffered saline (TBS: 50 mM Tris, pH 7.6). Consecutive 40 μm floating coronal sections were collected in 96-well plates. Series of sections were then stained with primary antisera against CD68 (AbD
Serotec, Cat. No. MCA1957), GFAP (DAKO, Cat. No. Z0334), Subunit C of mitochondrial ATP synthase (SCMAS; Abcam, Cat. No. ab181243), or cleaved caspase 3 (Asp175) (Cell Signaling, Cat. No. 9661S) followed by either rabbit anti-rat (VectorLab) or swine anti-rabbit (DAKO) secondary antibodies, and immunoreactivity detected with Vectastain ABC (avidin-biotin) kit (Vector) and diaminobenzidine as a chromogen.
Non-overlapping images were captured, on three consecutive sections, through each region of interest. All RGB images were captured via a live video camera (JVC, 3CCD, KY-F55B), mounted onto a Zeiss Axioplan microscope using a x 40 objective and saved as JPEGs. All parameters including lamp intensity, video camera set-up and calibration were maintained constant throughout image capturing. For quantification of storage and inflammation, images were analyzed using ImageJ analysis software (NIH), using an appropriate threshold that selected the foreground immunoreactivity above background. This threshold was then applied as a constant to all subsequent images analyzed per batch of animals and reagent used to determine the specific area of immunoreactivity for each antigen in each region. Data were plotted graphically as the mean percentage area of immunoreactivity per field ±s.e.m. for each region. For quantification of cell death, images were analyzed manually and scored for the presence of apoptotic nuclei. Data were plotted graphically as the mean number of apoptotic cells per field ±s.e.m. for each region. […]

Where [2] appears, read: 1 g/kg trehalose IV + 150 mg/kg miglustat PO, 180 min post-dose.
[3] abbreviates: 1 g/kg trehalose IV, 180 min post-dose.

Entries after “also recorded” stand apart in the source; their conditions may differ.

As to `OC[C@H]1O[C@H](O[C@H]2O[C@H](CO)[C@@H](O)[C@H](O)[C@H]2O)[C@H](O)[C@@H](O)[C@@H]1O` [Trehalose, α-D-glucopyranosyl α-D-glucopyranoside dihydrate], the results for the “Concentration of Trehalose, Brain L” value in series [1] (setting [2]) and in series [1] (setting [3]) were 10.8 ± 2.0 nmol/g and 6.9 ± 1.9 nmol/g, respectively. For the same molecule, the “Concentration of Trehalose, Brain R” value in series [1] (setting [2]) was 10.5 ± 1.7 nmol/g; in series [1] (setting [3]), 7.3 ± 0.9 nmol/g. For the same molecule, the “Concentration of Trehalose, Liver” value in series [1] (setting [2]) stood at 278.6 ± 96.6 nmol/g; in series [1] (setting [3]), 167.9 ± 24.6 nmol/g. Moreover, the “brain exposure of Trehalose” value in series [1] (IV Trehalose in combination with oral Miglustat, 180 min post-dose) is “about 10 nmol/g”; in series [1] (IV Trehalose, 180 min post-dose) it was “about 7 nmol/g”; in series [1] (PO Trehalose) it was 2.5 nmol/g. Further, the “cell death (cleaved CAS-3) in the VPM/VPL region” value in the series with Cln3^Δex7-8 mice (12 months of age, oral, 2% Trehalose in drinking water, Miglustat in chow (FIG. 1E), dihydrate) is “partially prevented; also recorded: partially reduced”. Besides, in the series on Cln3^Δex7-8 mice (regions analyzed: VPM/VPL, dLG, S1BF, V1 (FIGS. 1A-D), oral treatment), the “programmed cell death (cleaved caspase-3 reactive cells)” value was “effective in abating programmed cell death”.
